This is an account of results in patent US11229614B2, “Supramolecular hydrogel applications to the carotid bodies to treat hypertension and sleep apnea in obesity” (THE JOHNS HOPKINS UNIVERSITY, priority 2017, dated 2022).

Where two headings read alike, the source gives them in different places.

The test system of one data set is C57BL/6J mice. It is filed as in vivo. The protocol:
Blood pressure telemetry (FIG. 2) and sleep studies in mice. […] Then blood pressure was measured at baseline (Day 0). The leptin osmotic pump was implanted SC to deliver 120 μg/day of the hormone, which increased leptin levels to 40-50 ng/ml which corresponded to plasma leptin levels in severely obese mice. Blood pressure measured after 2 days of leptin infusion (Day 2) followed by removal of the osmotic pump. On Day 5, the carotid artery bifurcation was exposed and co-assembled FTY720-PA filamentous nanostructures were applied bilaterally (5 μg/side). […] The leptin osmotic pump was reinserted on Day 9 and blood pressure was measured after two days of leptin infusion on Day 11. The pump was removed on Day 12 and reinserted on Day 20 followed by blood pressure measurement on Day 22. […] Leptin increased mean arteria blood pressure by 13±6 mm Hg and this effect was abolished by FTY720. […] Allowing 10% attrition rate, it will require 28 male (14 DIO and 14 lean) and 28 female C57BL/6J mice (14 DIO and 14 lean).

Data set [1] is described as follows: Maximum solubility at pH 7.4. It is filed as physicochemical.
For data set [2] the following is noted: humans; cited from earlier work.
The conditions of data set [3]: mice; cited from earlier work.

For “Leptin: hormone delivered by SC osmotic pump to induce hypertension”, the “increase of mean arterial blood pressure” value with C57BL/6J mice (leptin infusion) came to 13±6 mm Hg.

The compound `CCCCCCCCc1ccc(CCC(N)(CO)CO)cc1.Cl` [FTY720, 2-Amino-2-[2-(4-octyl-phenyl)-ethyl]-propane-1,3-diol hydrochloride] showed a solubility in data set [1] of 81 µM. Moreover, the half-life in data set [2] was 170 h; in data set [3] it was 9 h. For the same compound, the leptin-induced hypertension entry with C57BL/6J mice (FTY720 in Matrigel at 0.3 mg/kg/day applied to CB (FIG. 2)) and in the data set on C57BL/6J mice (administered to CB locally) was “abolished leptin-induced hypertension” each time. Moreover, in the data set on C57BL/6J mice (mouse, in vivo), the “effect on leptin-induced increase of mean arterial blood pressure” value is “abolished”.
